Results from patent US20200131196A1 (Mount Tam Therapeutics, Inc., priority 2017, published 2020).
“And” between values parts separate entries of the source, which are not always exact repeats. Equal entries are not always repeated. Where two headings read alike, the source gives them in different places.

Experiment: Whole blood concentrations in mice after IP dosing (LC-MS/MS)
Type: in vivo, mouse
Details: for approximate mean concentration in whole blood: up to six hours following administration
Method: Shown below are whole blood concentrations following administration of the compound of Formula II to mice. The compound of Formula II was administered to mice at 2 mg/kg or 10 mg/kg and the concentration of the compound in whole blood determined. These determinations were made using protein precipitation, liquid chromatography (LC), and mass spectrometry (MS/MS). Ten μl aliquots of whole blood and matrix calibration standards were distributed in a 96-well plate; 10 μl aliquots of blank matrix for matrix blanks and control blanks were included as controls. Ten μl of water was added to each sample followed by vortexing. One hundred sixty […] of internal standard was added to each sample except the matrix blanks; 160 μl 70:30 water:acetonitrile (ACN) was added to matrix blanks. This was followed by a […]. One hundred fifty μl of the resultant supernatant was then transferred to a new 96-well plate and the samples blown to dryness at 35° C. The resultant product was then reconstituted with 90 μl ACN.

Structure (SMILES): CO[C@H]1C[C@@H]2CC[C@@H](C)[C@@](O)(O2)C(=O)C(=O)N2CCCC[C@H]2C(=O)O[C@H]([C@H](C)C[C@H]2C[C@H]3C[C@@H]2C[C@@H]3O)CC(=O)[C@H](C)/C=C(\C)[C@@H](O)[C@@H](OC)C(=O)[C@H](C)C[C@H](C)/C=C/C=C/C=C/1C [Formula II, C37-[(1R,2S,4R,5S)-5-hyhroxybicyclo[2.2.1]heptane] rapamycin]
- Formula II Concentrations in Mouse Whole Blood, Mean (2 mg/kg IP QD × 3 days, Day 1, 1.00 hrs): 383 ng/mL
- Formula II Concentrations in Mouse Whole Blood, individual animals (2 mg/kg IP QD × 3 days, Day 1, 1.00 hrs, animals 7, 8, 9): 452 ng/mL and 380 ng/mL and 317 ng/mL
- Formula II Concentrations in Mouse Whole Blood, Mean (2 mg/kg IP QD × 3 days, Day 1, 2.00 hrs): 403 ng/mL
- Formula II Concentrations in Mouse Whole Blood, individual animals (2 mg/kg IP QD × 3 days, Day 1, 2.00 hrs, animals 7, 8, 9): 415 ng/mL (2×) and 378 ng/mL
- Formula II Concentrations in Mouse Whole Blood, Mean (2 mg/kg IP QD × 3 days, Day 1, 6.00 hrs): 464 ng/mL
- Formula II Concentrations in Mouse Whole Blood, individual animals (2 mg/kg IP QD × 3 days, Day 1, 6.00 hrs, animals 7, 8, 9): 382 ng/mL and 520 ng/mL and 490 ng/mL
- Formula II Concentrations in Mouse Whole Blood, individual animals (2 mg/kg IP QD × 3 days, Day 1, 24.0 hrs, animals 7, 8, 9): 18.4 ng/mL and 14.7 ng/mL
- Formula II Concentrations in Mouse Whole Blood, individual animals (2 mg/kg IP QD × 3 days, Day 2, 1.00 hrs, animals 7, 8, 9): 481 ng/mL and 208 ng/mL and 524 ng/mL
- Formula II Concentrations in Mouse Whole Blood, individual animals (2 mg/kg IP QD × 3 days, Day 2, 2.00 hrs, animals 7, 8, 9): 501 ng/mL and 233 ng/mL and 570 ng/mL
- Formula II Concentrations in Mouse Whole Blood, individual animals (2 mg/kg IP QD × 3 days, Day 2, 6.00 hrs, animals 7, 8, 9): 632 ng/mL and 552 ng/mL
- Formula II Concentrations in Mouse Whole Blood, individual animals (2 mg/kg IP QD × 3 days, Day 2, 24.0 hrs, animals 7, 8, 9): 15.3 ng/mL and 80.6 ng/mL and 35.2 ng/mL
- Formula II Concentrations in Mouse Whole Blood, Mean (2 mg/kg IP QD × 3 days, Day 3, 1.00 hrs): 651 ng/mL
- Formula II Concentrations in Mouse Whole Blood, individual animals (2 mg/kg IP QD × 3 days, Day 3, 1.00 hrs, animals 7, 8, 9): 726 ng/mL and 600 ng/mL
- Formula II Concentrations in Mouse Whole Blood, Mean (2 mg/kg IP QD × 3 days, Day 3, 2.00 hrs): 501 ng/mL
- Formula II Concentrations in Mouse Whole Blood, individual animals (2 mg/kg IP QD × 3 days, Day 3, 2.00 hrs, animals 7, 8, 9): 478 ng/mL and 489 ng/mL and 535 ng/mL
- Formula II Concentrations in Mouse Whole Blood, Mean (2 mg/kg IP QD × 3 days, Day 3, 6.00 hrs): 588 ng/mL
- Formula II Concentrations in Mouse Whole Blood, individual animals (2 mg/kg IP QD × 3 days, Day 3, 6.00 hrs, animals 7, 8, 9): 416 ng/mL and 745 ng/mL and 604 ng/mL
- Formula II Concentrations in Mouse Whole Blood, Mean (2 mg/kg IP QD × 3 days, Day 3, 24.0 hrs): 41.9 ng/mL
- Formula II Concentrations in Mouse Whole Blood, individual animals (2 mg/kg IP QD × 3 days, Day 3, 24.0 hrs, animals 7, 8, 9): 17.6 ng/mL and 59.6 ng/mL and 48.6 ng/mL
- concentrations in whole blood over time (in words) (2 mg/kg or 10 mg/kg IP QD for three days): sufficient concentrations in whole blood
- Formula II Concentrations in Mouse Whole Blood, Mean (10 mg/kg IP QD × 3 days, Day 1, 1.00 hrs): 657 ng/mL
- Formula II Concentrations in Mouse Whole Blood, individual animals (10 mg/kg IP QD × 3 days, Day 1, 1.00 hrs, animals 10, 11, 12): 560 ng/mL and 641 ng/mL and 769 ng/mL
- Formula II Concentrations in Mouse Whole Blood, Mean (10 mg/kg IP QD × 3 days, Day 1, 2.00 hrs): 722 ng/mL
- Formula II Concentrations in Mouse Whole Blood, individual animals (10 mg/kg IP QD × 3 days, Day 1, 2.00 hrs, animals 10, 11, 12): 793 ng/mL and 869 ng/mL and 503 ng/mL
- Formula II Concentrations in Mouse Whole Blood, Mean (10 mg/kg IP QD × 3 days, Day 1, 6.00 hrs): 1165 ng/mL
- Formula II Concentrations in Mouse Whole Blood, individual animals (10 mg/kg IP QD × 3 days, Day 1, 6.00 hrs, animals 10, 11, 12): 1000 ng/mL and 1950 ng/mL and 544 ng/mL
- Formula II Concentrations in Mouse Whole Blood, Mean (10 mg/kg IP QD × 3 days, Day 1, 24.0 hrs): 204 ng/mL
- Formula II Concentrations in Mouse Whole Blood, individual animals (10 mg/kg IP QD × 3 days, Day 1, 24.0 hrs, animals 10, 11, 12): 222 ng/mL and 181 ng/mL and 210 ng/mL
- Formula II Concentrations in Mouse Whole Blood, Mean (10 mg/kg IP QD × 3 days, Day 2, 1.00 hrs): 2309 ng/mL
- Formula II Concentrations in Mouse Whole Blood, individual animals (10 mg/kg IP QD × 3 days, Day 2, 1.00 hrs, animals 10, 11, 12): 3410 ng/mL and 2970 ng/mL and 546 ng/mL
- Formula II Concentrations in Mouse Whole Blood, Mean (10 mg/kg IP QD × 3 days, Day 2, 2.00 hrs): 3323 ng/mL
- Formula II Concentrations in Mouse Whole Blood, individual animals (10 mg/kg IP QD × 3 days, Day 2, 2.00 hrs, animals 10, 11, 12): 3670 ng/mL and 3930 ng/mL and 2370 ng/mL
- Formula II Concentrations in Mouse Whole Blood, Mean (10 mg/kg IP QD × 3 days, Day 2, 6.00 hrs): 2256 ng/mL
- Formula II Concentrations in Mouse Whole Blood, individual animals (10 mg/kg IP QD × 3 days, Day 2, 6.00 hrs, animals 10, 11, 12): 2770 ng/mL and 3390 ng/mL and 609 ng/mL
- Formula II Concentrations in Mouse Whole Blood, Mean (10 mg/kg IP QD × 3 days, Day 2, 24.0 hrs): 179 ng/mL
- Formula II Concentrations in Mouse Whole Blood, individual animals (10 mg/kg IP QD × 3 days, Day 2, 24.0 hrs, animals 10, 11, 12): 123 ng/mL and 336 ng/mL and 78.0 ng/mL
- Formula II Concentrations in Mouse Whole Blood, Mean (10 mg/kg IP QD × 3 days, Day 3, 1.00 hrs): 2204 ng/mL
- Formula II Concentrations in Mouse Whole Blood, individual animals (10 mg/kg IP QD × 3 days, Day 3, 1.00 hrs, animals 10, 11, 12): AQL and 3420 ng/mL and 987 ng/mL
- Formula II Concentrations in Mouse Whole Blood, Mean (10 mg/kg IP QD × 3 days, Day 3, 2.00 hrs): 3199 ng/mL
- Formula II Concentrations in Mouse Whole Blood, individual animals (10 mg/kg IP QD × 3 days, Day 3, 2.00 hrs, animals 10, 11, 12): 5170 ng/mL and 3650 ng/mL and 777 ng/mL
- Formula II Concentrations in Mouse Whole Blood, Mean (10 mg/kg IP QD × 3 days, Day 3, 6.00 hrs): 2317 ng/mL
- Formula II Concentrations in Mouse Whole Blood, individual animals (10 mg/kg IP QD × 3 days, Day 3, 6.00 hrs, animals 10, 11, 12): 3330 ng/mL and 2890 ng/mL and 730 ng/mL
- Formula II Concentrations in Mouse Whole Blood, Mean (10 mg/kg IP QD × 3 days, Day 3, 24.0 hrs): 223 ng/mL
- Formula II Concentrations in Mouse Whole Blood, individual animals (10 mg/kg IP QD × 3 days, Day 3, 24.0 hrs, animals 10, 11, 12): 223 ng/mL and 323 ng/mL and 124 ng/mL
- approximate mean concentration in whole blood (about 2 mg/kg): 383 to 651 ng/mL
- approximate mean concentration in whole blood (about 10 mg/kg): 657 to 3323 ng/mL
- concentration at 24 h (mouse, whole blood, intraperitoneal, 2 mg/kg, 2 mg/kg IP QD × 3 days, Day 1, 24.0 hrs, animals 7, 8, 9, read-out: Formula II Concentrations in Mouse Whole Blood, individual animals): 12.2 ng/mL
- concentration at 24 h (mouse, whole blood, intraperitoneal, 2 mg/kg, 2 mg/kg IP QD × 3 days, Day 1, 24.0 hrs, read-out: Formula II Concentrations in Mouse Whole Blood, Mean): 15.1 ng/mL
- concentration at 1 h (mouse, whole blood, intraperitoneal, 2 mg/kg, 2 mg/kg IP QD × 3 days, Day 2, 1.00 hrs, read-out: Formula II Concentrations in Mouse Whole Blood, Mean): 404 ng/mL
